Measured values taken from PMC12292302, “Revealing the Improving Effect and Molecular Mechanism of L-Clausenamide in Combating the Acute Lung Injury: Insights from Network Pharmacology, Molecular Docking, and In Vitro Validation” (Biology, 2025).

Biological target: AKT1 (RAC-alpha serine/threonine-protein kinase) (Homo sapiens, UniProt P31749)
Assay: SPR (Biacore 8K+, CM7 chip, purchased AKT1 protein MCE HY-P74421)
Format: binding

Chain of AKT1 (RAC-alpha serine/threonine-protein kinase) (P31749 whole entry): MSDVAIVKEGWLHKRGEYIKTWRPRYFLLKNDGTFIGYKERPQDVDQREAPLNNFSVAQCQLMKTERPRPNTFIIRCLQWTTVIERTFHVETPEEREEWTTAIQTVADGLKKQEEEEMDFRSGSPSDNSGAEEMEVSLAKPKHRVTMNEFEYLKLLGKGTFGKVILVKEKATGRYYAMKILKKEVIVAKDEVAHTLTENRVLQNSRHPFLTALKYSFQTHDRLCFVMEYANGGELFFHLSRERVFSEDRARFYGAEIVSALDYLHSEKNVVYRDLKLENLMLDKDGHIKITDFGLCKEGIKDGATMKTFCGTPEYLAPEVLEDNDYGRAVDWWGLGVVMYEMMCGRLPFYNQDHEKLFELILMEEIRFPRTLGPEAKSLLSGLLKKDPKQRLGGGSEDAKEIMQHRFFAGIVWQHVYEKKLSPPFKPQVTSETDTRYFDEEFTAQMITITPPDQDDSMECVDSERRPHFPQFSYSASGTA

- Kd: 10.3 µM
Compound: CN1C(=O)[C@@H](O)[C@H](c2ccccc2)[C@@H]1[C@@H](O)c1ccccc1 [L-Clausenamide]
